From PubChem BioAssay (NCI)
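Five concentrations, 48 hours, 96-well plates. The concentration for 50% growth inhibition is given as GI50. TGI denotes the concentration required for complete inhibition of growth.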

How the values were obtained:
Assay in all cases: NCI-60 cell line screen, 48 h
[1] = tested on: 786-0 renal
[2] = tested on: A498 renal
[3] = tested on: A549 NSCLC
[4] = tested on: ACHN renal
[5] = tested on: BT-549 breast
[6] = tested on: CAKI-1 renal
[7] = tested on: CCRF-CEM leukemia
[8] = tested on: COLO 205 colon
[9] = tested on: DU-145 prostate
[10] = tested on: EKVX NSCLC
[11] = tested on: HCC-2998 colon
[12] = tested on: HCT-116 colon
[13] = tested on: HCT-15 colon
[14] = tested on: HL-60(TB) leukemia
[15] = tested on: HOP-62 NSCLC
[16] = tested on: HOP-92 NSCLC
[17] = tested on: HS 578T breast
[18] = tested on: HT29 colon
[19] = tested on: IGROV1 ovarian
[20] = tested on: K-562 leukemia
[21] = tested on: KM12 colon
[22] = tested on: LOX IMVI melanoma
[23] = tested on: M14 melanoma
[24] = tested on: MALME-3M melanoma
[25] = tested on: MCF7 breast
[26] = tested on: MDA-MB-231 breast
[27] = tested on: MDA-MB-435
[28] = tested on: MOLT-4 leukemia
[29] = tested on: NCI-H226 lung
[30] = tested on: NCI-H23 lung
[31] = tested on: NCI-H460 lung
[32] = tested on: NCI-H522 lung
[33] = tested on: NCI/ADR-RES ovarian
[34] = tested on: OVCAR-3 ovarian
[35] = tested on: OVCAR-4 ovarian
[36] = tested on: OVCAR-5 ovarian
[37] = tested on: OVCAR-8 ovarian
[38] = tested on: PC-3 prostate
[39] = tested on: RPMI-8226 leukemia
[40] = tested on: RXF 393 renal
[41] = tested on: SF-268 CNS
[42] = tested on: SF-295 CNS
[43] = tested on: SF-539 CNS
[44] = tested on: SK-MEL-2 melanoma
[45] = tested on: SK-MEL-28 melanoma
[46] = tested on: SK-OV-3 ovarian
[47] = tested on: SN12C renal
[48] = tested on: SNB-19 CNS
[49] = tested on: SNB-75 CNS
[50] = tested on: SR leukemia
[51] = tested on: SW-620 colon
[52] = tested on: T-47D breast
[53] = tested on: TK-10 renal
[54] = tested on: U251 CNS
[55] = tested on: UACC-257 melanoma
[56] = tested on: UACC-62 melanoma
[57] = tested on: UO-31 renal

## O=C(c1ccccc1)N(C(=S)NCCc1ccc(Cl)cc1)c1ccc(Cl)cc1
[1]
  GI50: 14.7 µM
  TGI: 28.6 µM
[2]
  GI50: 16.3 µM
  TGI: 30.7 µM
[3]
  GI50: 19.4 µM
  TGI: 49.9 µM
[4]
  GI50: 5.68 µM
  TGI: 17.4 µM
[5]
  GI50: 11.8 µM
  TGI: 25.8 µM
[6]
  GI50: 5.48 µM
  TGI: 20.9 µM
[7]
  GI50: 2.59 µM
  TGI: 10.7 µM
[8]
  GI50: 6.83 µM
  TGI: 23.1 µM
[9]
  GI50: 5.22 µM
  TGI: 16.7 µM
[10]
  GI50: 17.4 µM
  TGI: 38.8 µM
[11]
  GI50: 8.54 µM
  TGI: 22.6 µM
[12]
  GI50: 7.11 µM
  TGI: 23.7 µM
[13]
  GI50: 3.57 µM
  TGI: 14.4 µM
[14]
  GI50: 6.77 µM
  TGI: > 100 µM
[15]
  GI50: 20.2 µM
  TGI: 37.9 µM
[16]
  GI50: 7.3 µM
  TGI: 21 µM
[17]
  GI50: 13.8 µM
  TGI: > 100 µM
[18]
  GI50: 5.3 µM
  TGI: 58.4 µM
[19]
  GI50: 3.88 µM
  TGI: 16.2 µM
[20]
  GI50: 74.6 µM
  TGI: > 100 µM
[21]
  GI50: 4.24 µM
  TGI: 15.3 µM
[22]
  GI50: 2.4 µM
  TGI: 5.3 µM
[23]
  GI50: 8.42 µM
  TGI: 25 µM
[24]
  GI50: 11.8 µM
  TGI: 28.6 µM
[25]
  GI50: 3.58 µM
  TGI: 19.4 µM
[26]
  GI50: 6.95 µM
  TGI: 20.4 µM
[27]
  GI50: 4.67 µM
  TGI: 20.4 µM
[28]
  GI50: 3.14 µM
  TGI: > 100 µM
[29]
  GI50: 16.7 µM
  TGI: 39.4 µM
[30]
  GI50: 13 µM
  TGI: 31.4 µM
[31]
  GI50: 19.4 µM
  TGI: 42.4 µM
[32]
  GI50: 8.3 µM
  TGI: 22.9 µM
[33]
  GI50: 16.2 µM
  TGI: 30.9 µM
[34]
  GI50: 3.75 µM
  TGI: 13.3 µM
[35]
  GI50: 13.7 µM
  TGI: 29.3 µM
[36]
  GI50: 19.6 µM
  TGI: 36.4 µM
[37]
  GI50: 19.1 µM
  TGI: 35.3 µM
[38]
  GI50: 6.94 µM
  TGI: 26.2 µM
[39]
  GI50: 2.08 µM
  TGI: 5.66 µM
[40]
  GI50: 12.8 µM
  TGI: 28.6 µM
[41]
  GI50: 5.67 µM
  TGI: 18.4 µM
[42]
  GI50: 14.6 µM
  TGI: 31.9 µM
[43]
  GI50: 5.93 µM
  TGI: 19.1 µM
[44]
  GI50: 20.2 µM
  TGI: 36.4 µM
[45]
  GI50: 12.7 µM
  TGI: 27 µM
[46]
  GI50: 18.3 µM
  TGI: 32.8 µM
[47]
  GI50: 7.45 µM
  TGI: 20.7 µM
[48]
  GI50: 15.9 µM
  TGI: 30.1 µM
[49]
  GI50: 13.5 µM
  TGI: 27.9 µM
[50]
  GI50: 5.54 µM
  TGI: > 100 µM
[51]
  GI50: 4.49 µM
  TGI: 16.7 µM
[52]
  GI50: 6.24 µM
  TGI: 25.3 µM
[53]
  GI50: 5.67 µM
  TGI: 19.7 µM
[54]
  GI50: 4.38 µM
  TGI: 14.9 µM
[55]
  GI50: 18.2 µM
  TGI: 34.6 µM
[56]
  GI50: 11.4 µM
  TGI: 23.8 µM
[57]
  GI50: 2.61 µM
  TGI: 8.85 µM
